The numbers were not newly measured in patent US6790445B1, “Preservatives for vaccines” (Merck & Co., Inc., priority 1997, dated 2004), which cites them from elsewhere.

Structures are written as SMILES.

For data set [1] the following is noted: in vivo.
Another data set concerns mice. The following applies: intraperitoneally.
Another data set relates to population. As to conditions: in vivo.
For data set [2] the following is noted: at 4° C.

Consider `OCCOc1ccccc1` [2-Phenoxyethanol, 2-phenoxyethanol], for which the “acute oral LD50” value in the data set on rats was 1.26 to 2.33 mL/kg. Further, in the data set with rabbits, the “acute dermal LD50” value is 2.0 mL/kg.

On to `OCc1ccccc1` [Benzyl Alcohol, benzyl alcohol], for which the probable lethal dose in data set [1] is 500 to 5000 mg/kg.

By LD50 is commonly meant the dose expected to kill half of the subjects tested. Regarding `COC(=O)c1ccc(O)cc1` [Methyl Paraben, methyl paraben], in the data set on mice, the LD50 is 1000 mg/kg.

For the compound `C[CH2][Hg][S]c1ccccc1C(=O)[O-].[Na+]` [Thimerosal], the “allergic reaction, share of the population” value in the data set on population is given as “about sixteen”.

Broadly, the pKa is the negative logarithm of the acid dissociation constant. As to `N[C@@H](Cc1c[nH]cn1)C(=O)O` [histidine, L-histidine], in data set [2], the pKa was 7.
